Laboratory results taken from patent US20230364062A1, “METHOD OF TREATING MYELOID MALIGNANCIES” (Yeda Research and Development Co. Ltd., priority 2020, published 2023).

Legend:
[1] = tested on: AML2 SRSF2 (P95H) mutant cell line; test: Cell viability assay (CellTiter-Glo), drug screen and dose response; assay type: cell-based, human; settings: validation and dose response after primary screen, 48 hours
Excerpt: (§1) Compound Libraries: Three commercial libraries were used in the screening process: the Bioactive library (New Selleck Collection 2020, n=3727), the Kinom Set (n=187), and the Epigenetic chemical probe library (Structural Genomics Consortium, n=97).
(§2) Cell viability assay: Compounds were dispensed in 384-well plates using an ECHO® 555 liquid handler (Labcyte) and sealed. On day of experiment, the concentrations of isogenic and respective wildtype cell lines were counted using a Countess™ II FL (Invtrogen™) and re-suspended at 40,000 cell/ml. 50 μL of medium was dispensed using a Multidrop™ Combi Reagent Dispenser (Thermo Fisher), bringing the total number of cells in each well to 2000. Cells were incubated for 48 hours. On day of measurement, plates were centrifuged and supernatant was removed using a Washer/Dispenser II (GNF Systems). A Washer/Dispenser II was then used to dispense CellTiter-Glo® (G7572, Promega) as per the manufacturer's instructions. The luminescence signal was then measured using a PHERAstar® FSX (BMG Labtech) and results were analyzed using Genedata Screener®. The viability of treated cells was normalized to a vehicle control, contained on each plate.
(§3) Next, a sensitivity screening of […] chemical compounds from three commercial libraries: the Bioactive collection (New Selleck Collection 2020, n=3727), the Kinom Set (n=187), and the Epigenetic chemical probe library (Structural Genomics Consortium, n=97) was carried out on the isogenic cell lines. Following a primary screen, compounds with higher cytotoxic efficacy in the mutant versus WT cells were chosen for further validation and dose response analysis. Both mutant MOLM14 and AML2 cell lines responded to various ROCK inhibitors (ROCKi), including, GSK429286A, GSK180736A, Y-39983 and specifically to RKI-1447.

[2] = tested on: MOLM14 SRSF2 (P95H) mutant cell line; test: as above; assay type: cell-based, human; settings: validation and dose response after primary screen, 48 hours
Excerpt: as §1, §2, §3

[3] = tested on: MOLM14 SRSF2 mutant cell line; test: Cell cycle analysis after RKI-1447; assay type: cell-based, human
[4] = tested on: MOLM14 wild type cell line; test: Cell cycle analysis after RKI-1447; assay type: cell-based, human; settings: 0.5 μM RKI-1447 compared to untreated control
Excerpt: (§4) Rho-associated protein kinases (ROCKs or Rho kinases) are key regulators of the actin cytoskeleton and are required for separating cells' duplicated genetic material during cell division to ensure proper partitioning of DNA in to daughter cells. Actin is also linked to RNA polymerase function and associated with many heterogeneous nuclear ribonucleoproteins, and may thus act to affect pre-mRNA processing and regulate transcription. Given this knowledge of ROCKs and actin, it was hypothesized that disrupting the function of ROCKs will result in cell cycle and RNA splicing alteration. In order to test this hypothesis, RNA sequencing and proteomics were performed on isogenic lines prior to and following exposure to RKI-1447. […] One of the significant up regulated protein is CDC20. CDC20 is an activator of anaphase-promoting complex/cyclosome (APC/C), and APC/Cdc 20 activity is critical for metaphase/anaphase transition.

SRSF2 mutant cells = test: Nuclear morphology and microtubule structure by confocal microscopy; assay type: cell-based, human; settings: SRSF2 mutant cells following RKI-1447 treatment
Excerpt: The nuclear morphology and microtubule structure of SRSF2 mutant cells was examined by confocal microscopy following RKI-1447 treatment. […] The surface area of the nucleus of mutant cells was considerably bigger than that of WT cells, and the sphericity was reduced (FIGS. 5B-D).

[5] = tested on: MOLM14 SRSF2 mutant cells; test: MOLM14 cell line xenograft model of AML in NSG mice; assay type: in vivo; settings: NSG mice transplanted with MOLM14 cell line model; compared to the control
SRSF2 mutated AML = test: AML-PDX models with SRSF2 mutations in NSG mice; assay type: in vivo; settings: two AML-PDX samples; 3 weeks of treatment from day 35; versus carrier control
Method: To evaluate whether SRSF2 mutated AML is sensitive to RKI-1447, the present inventors studied its effect in vivo with cell line and patient-derived xenograft model of AML. […] Two AML-PDX models with SRSF2 mutations were established that recapitulate the disease in vivo. NSG mice (n=5-10/sample) were injected with one to five million CD3− cells from two patients with SRSF2 mutated AML through femur. On day 35 the animals were randomized to RKI-1447 or a carrier control. Following 3 weeks of treatment week, engraftment of AML cells in BM was evaluated using flow cytometry. Both lymphoid (CD19+ B cells) and myeloid lineages (CD45dimCD33+) are detected, but dominantly are myeloid graft, in our AML-PDX models. […] To determine the grafts origin from srsf2 mutated LSC/ pre-leukaemic HSCs, human cells (CD45+) were isolated from the total BM cells and amplicon sequence of SRSF2 was performed.

[6] = tested on: isogenic SRSF2 mutant and wild-type cell lines; test: RNA sequencing and proteomics with pre ranked GSEA before and after RKI-1447; assay type: cell-based, human; settings: both mutant and wild-type cells after exposure to RKI-1447
Excerpt: as §4

[7] = 0.5 μM RKI-1447 compared to untreated control, MOLM14 SRSF2 mutant

For `CC1=C(C(=O)Nc2ccc3[nH]ncc3c2)C(c2ccc(F)cc2)NC(=O)N1` (stereo not drawn) [GSK180736A], which “response of mutant cell line to ROCK inhibitor (cytotoxic efficacy mutant versus WT)” value [1] is on record?
The value was “responded”.

And the “response of mutant cell line to ROCK inhibitor (cytotoxic efficacy mutant versus WT)” value [2]?
Its value is “responded”.

Which “response of mutant cell line to ROCK inhibitor (cytotoxic efficacy mutant versus WT)” value [1] does the source give for `CC1=C(C(=O)Nc2cc3cn[nH]c3cc2F)C(c2ccc(C(F)(F)F)cc2)CC(=O)N1` (stereo not drawn) [GSK429286A] here?
The value was “responded”.

What about the “response of mutant cell line to ROCK inhibitor (cytotoxic efficacy mutant versus WT)” value [2] of the same compound?
The value was “responded”.

With `O=C(NCc1cccc(O)c1)Nc1nc(-c2ccncc2)cs1` [RKI-1447] as the compound, how does the “response of mutant cell line to ROCK inhibitor (cytotoxic efficacy mutant versus WT)” value [1] read?
Its value is “responded”.

And the “response of mutant cell line to ROCK inhibitor (cytotoxic efficacy mutant versus WT)” value [2]?
Its value is “responded”.

And the “cell cycle difference in MOLM14 SRSF2 mutant relative to wild type” value ([3]; 0.5 μM RKI-1447, P<0.01)?
The value was “more pronounced”.

What about the “percentage of G0/G1 phase cells” value [3, 7] of the same compound?
Its value is “decrease in the percentage”.

And the “percentage of G2/M and S phase cells” value [3, 7]?
The value was “higher percentage”.

What about the “percentage of G0/G1 phase cells” value [4] of the same compound?
The value was “decrease in the percentage”.

What about the “percentage of G2/M and S phase cells” value [4] of the same compound?
The value was “higher percentage”.

What about the apoptosis (SRSF2 mutant cells) of the same compound?
The apoptosis was “apoptosis”.

What about the nuclear morphology (SRSF2 mutant cells) of the same compound?
Its nuclear morphology is “nucleus invagination and deformations”.

What about the “engraftment (number of CD45+ cells)” value [5] of the same compound?
Its value is “significant decrease of engraftment”.

What about the “engraftment rate of AML cells in BM (flow cytometry)” value (SRSF2 mutated AML) of the same compound?
The value was “significant lower engraftment rate”.

What about the “pre ranked GSEA, regulated pathways” value [6] of the same compound?
Its value is “cell cycle is one of the most significantly up-regulated pathways”.

What does the source list for `C[C@@H](N)c1ccc(C(=O)Nc2ccnc3[nH]ccc23)cc1` [Y-39983]?
response of mutant cell line to ROCK inhibitor (cytotoxic efficacy mutant versus WT) [1]: responded; response of mutant cell line to ROCK inhibitor (cytotoxic efficacy mutant versus WT) [2]: responded
